From the supplement of paper PMC10883282
± gives the standard deviation of the averaged measurements.

Test system: G401
Assay: relative viability vs DMSO control (72 h) (fraction); higher = more viable cells
Procedure, shortened: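 Densities for seeding sarcoma cell lines into 384-well plates were set to give 80–90% confluence. After 24 h, 2.5 µl of serially diluted compound from source plates of 10 mM to 0.0002 mM went in, and plates stayed 72 h at 37 °C in 5% CO2 with 0.1% DMSO vehicle and a 5 µM positive control. Percent growth from ATPLite readings, averaged over up to triplicate wells, served as relative viability, rescaled so 1 means full and 0 means none.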

| Structure (SMILES) | relative viability (0.00017 µM) | relative viability (0.00051 µM) | relative viability (0.00152 µM) | relative viability (0.00457 µM) | relative viability (0.01372 µM) | relative viability (0.04115 µM) | relative viability (0.1235 µM) | relative viability (0.3704 µM) | relative viability (1.111 µM) | relative viability (3.333 µM) | relative viability (10 µM) | relative viability (2 pM) | relative viability (5 pM) | relative viability (15 pM) | relative viability (50 pM) | relative viability (0.00014 µM) | relative viability (0.00041 µM) | relative viability (0.0012 µM) | relative viability (0.0037 µM) | relative viability (0.011 µM) | relative viability (200 fM) | relative viability (600 fM) |
| --- | --- | --- | --- | --- | --- | --- | --- | --- | --- | --- | --- | --- | --- | --- | --- | --- | --- | --- | --- | --- | --- | --- |
| Cc1ccc(F)c(NC(=O)Nc2ccc(-c3cccc4[nH]nc(N)c34)cc2)c1 [Linifanib] | 1.03 ± 0.045 | 1.03 ± 0.087 | 0.996 ± 0.021 | 1.02 ± 0.02 | 1.01 ± 0.064 | 0.994 ± 0.01 | 0.956 ± 0.031 | 0.956 ± 0.048 | 0.928 ± 0.04 | 0.915 ± 0.013 | 0.9524 ± 0.0058 | – | – | – | – | – | – | – | – | – | – | – |
| C[C@]1(O)C[C@@H](c2nc(-c3ccc4ccc(-c5ccccc5)nc4c3)c3c(N)nccn32)C1 [Linsitinib] | 1 ± 0.063 | 0.974 ± 0.026 | 1.02 ± 0.048 | 0.955 ± 0.013 | 0.992 ± 0.023 | 0.894 ± 0.034 | 0.791 ± 0.049 | 0.668 ± 0.013 | 0.627 ± 0.007 | 0.562 ± 0.017 | 0.466 ± 0.026 | – | – | – | – | – | – | – | – | – | – | – |
| Cc1ccc(NC(=O)c2ccc(CN3CCN(C)CC3)cc2)cc1Nc1nc(-c2cccnc2)cs1 [Masitinib] | 0.973 ± 0.058 | 0.9736 ± 0.0054 | 0.9669 ± 0.0091 | 0.9556 ± 0.0058 | 0.979 ± 0.026 | 0.971 ± 0.047 | 0.931 ± 0.024 | 0.843 ± 0.056 | 0.687 ± 0.0084 | 0.388 ± 0.014 | 0.0983 ± 0.005 | – | – | – | – | – | – | – | – | – | – | – |
| CC1(C)CNc2cc(NC(=O)c3cccnc3NCc3ccncc3)ccc21 [Motesanib] | 0.984 ± 0.047 | 0.982 ± 0.042 | 0.973 ± 0.019 | 0.955 ± 0.03 | 0.979 ± 0.015 | 0.962 ± 0.022 | 0.949 ± 0.022 | 0.934 ± 0.036 | 0.9058 ± 0.0034 | 0.84 ± 0.034 | 0.684 ± 0.02 | – | – | – | – | – | – | – | – | – | – | – |
| CC(C)N1CCN(Cc2cnc(-c3cc(-c4cccc5[nH]ccc45)cc4[nH]ncc34)o2)CC1 [Nemiralisib] | 0.962 ± 0.043 | 0.933 ± 0.035 | 0.883 ± 0.015 | 0.921 ± 0.033 | 0.904 ± 0.035 | 0.911 ± 0.048 | 0.916 ± 0.013 | 0.877 ± 0.01 | 0.833 ± 0.021 | 0.735 ± 0.026 | 0.609 ± 0.012 | – | – | – | – | – | – | – | – | – | – | – |
| C=CC(=O)Nc1cccc(Oc2nc(Nc3ccc(N4CCN(C)CC4)cc3)nc3ccsc23)c1 [Olmutinib] | 0.984 ± 0.021 | 0.976 ± 0.048 | 0.969 ± 0.022 | 0.984 ± 0.039 | 0.96 ± 0.03 | 0.986 ± 0.043 | 1 ± 0.041 | 1.01 ± 0.043 | 0.916 ± 0.018 | 0.759 ± 0.019 | 0.481 ± 0.036 | – | – | – | – | – | – | – | – | – | – | – |
| CC(C)(C)c1cc(NC(=O)Nc2ccc(-c3cn4c(n3)sc3cc(OCCN5CCOCC5)ccc34)cc2)no1 [Quizartinib] | 1.02 ± 0.04 | 1.01 ± 0.017 | 1.05 ± 0.048 | 1.06 ± 0.026 | 1.04 ± 0.039 | 0.984 ± 0.052 | 1 ± 0.013 | 0.926 ± 0.011 | 0.971 ± 0.021 | 0.945 ± 0.051 | 0.87 ± 0.023 | – | – | – | – | – | – | – | – | – | – | – |
| CNC(=O)c1cc(Oc2ccc(NC(=O)Nc3ccc(Cl)c(C(F)(F)F)c3)c(F)c2)ccn1 [Regorafenib] | 1.05 ± 0.058 | 1.06 ± 0.077 | 1.09 ± 0.071 | 1.07 ± 0.025 | 1.07 ± 0.032 | 1.07 ± 0.071 | 1.02 ± 0.058 | 0.888 ± 0.088 | 0.821 ± 0.056 | 0.609 ± 0.062 | 0.431 ± 0.029 | – | – | – | – | – | – | – | – | – | – | – |
| CO[C@H]1C[C@@H]2CC[C@@H](C)[C@@](O)(O2)C(=O)C(=O)N2CCCC[C@H]2C(=O)O[C@H]([C@H](C)C[C@@H]2CC[C@@H](OP(C)(C)=O)[C@H](OC)C2)CC(=O)[C@H](C)/C=C(\C)[C@@H](O)[C@@H](OC)C(=O)[C@H](C)C[C@H](C)/C=C/C=C/C=C/1C [Ridaforolimus] | 0.919 ± 0.043 | 0.885 ± 0.03 | 0.841 ± 0.071 | 0.793 ± 0.068 | 0.751 ± 0.07 | 0.739 ± 0.056 | 0.744 ± 0.027 | 0.725 ± 0.019 | 0.712 ± 0.012 | 0.681 ± 0.017 | 0.645 ± 0.022 | – | – | – | – | – | – | – | – | – | – | – |
| COCc1c(-c2cc3cc(C)cc(OC)c3s2)c2c(N)ncnn2c1CN1CCNC(=O)C1 [Rogaratinib] | 1.05 ± 0.015 | 1.06 ± 0.037 | 1.02 ± 0.031 | 1.01 ± 0.011 | 1.018 ± 0.0054 | 0.967 ± 0.038 | 0.8878 ± 0.0073 | 0.68 ± 0.015 | 0.592 ± 0.024 | 0.532 ± 0.043 | 0.375 ± 0.0068 | – | – | – | – | – | – | – | – | – | – | – |
| N#CC[C@H](C1CCCC1)n1cc(-c2ncnc3[nH]ccc23)cn1 [Ruxolitinib] | 0.971 ± 0.051 | 1.01 ± 0.037 | 1.01 ± 0.034 | 1 ± 0.026 | 1.02 ± 0.02 | 0.969 ± 0.039 | 0.99 ± 0.024 | 0.935 ± 0.047 | 0.942 ± 0.035 | 0.936 ± 0.025 | 0.824 ± 0.034 | – | – | – | – | – | – | – | – | – | – | – |
| Cc1cc(C)c(/C=C2\C(=O)Nc3ccccc32)[nH]1 [Semaxanib] | 0.957 ± 0.044 | 0.981 ± 0.031 | 0.957 ± 0.043 | 0.976 ± 0.037 | 0.964 ± 0.036 | 0.948 ± 0.019 | 0.9755 ± 0.0068 | 0.9895 ± 0.0091 | 0.932 ± 0.046 | 0.904 ± 0.05 | 0.813 ± 0.067 | – | – | – | – | – | – | – | – | – | – | – |
| Cc1nc(-c2cn3c(n2)-c2ccc(-c4cnn(C(C)(C)C(N)=O)c4)cc2OCC3)n(C(C)C)n1 [Taselisib] | 0.995 ± 0.022 | 0.968 ± 0.045 | 0.969 ± 0.032 | 0.923 ± 0.011 | 0.866 ± 0.019 | 0.7976 ± 0.0064 | 0.68 ± 0.03 | 0.592 ± 0.027 | 0.499 ± 0.021 | 0.439 ± 0.019 | 0.347 ± 0.018 | – | – | – | – | – | – | – | – | – | – | – |
| CN1CCC(COc2cnc(-c3cccc(Cn4nc(-c5cccc(C#N)c5)ccc4=O)c3)nc2)CC1 [Tepotinib] | 1.02 ± 0.014 | 1.02 ± 0.015 | 1.012 ± 0.01 | 1.003 ± 0.0083 | 1.04 ± 0.018 | 1.04 ± 0.057 | 1.02 ± 0.013 | 1.01 ± 0.029 | 1 ± 0.015 | 0.9287 ± 0.0054 | 0.787 ± 0.02 | – | – | – | – | – | – | – | – | – | – | – |
| COc1cc2nccc(Oc3ccc(NC(=O)Nc4cc(C)on4)c(Cl)c3)c2cc1OC [Tivozanib] | 1.01 ± 0.025 | 1.03 ± 0.035 | 1.04 ± 0.025 | 1.04 ± 0.019 | 1.04 ± 0.023 | 0.98 ± 0.044 | 0.992 ± 0.056 | 0.99 ± 0.021 | 0.965 ± 0.034 | 0.713 ± 0.019 | 0.381 ± 0.0095 | – | – | – | – | – | – | – | – | – | – | – |
| C[C@@H]1CCN(C(=O)CC#N)C[C@@H]1N(C)c1ncnc2[nH]ccc12 [Tofacitinib] | 1.07 ± 0.026 | 1.044 ± 0.0027 | 1.06 ± 0.027 | 1.02 ± 0.015 | 1.05 ± 0.012 | 1.05 ± 0.026 | 1.03 ± 0.035 | 1.07 ± 0.048 | 1.04 ± 0.045 | 1.06 ± 0.056 | 1.06 ± 0.037 | – | – | – | – | – | – | – | – | – | – | – |
| COc1cc2c(cc1O)CCN[C@]21CS[C@@H]2c3c(OC(C)=O)c(C)c4c(c3[C@H](COC1=O)N1[C@@H]2[C@H]2c3c(cc(C)c(OC)c3O)C[C@@H]([C@@H]1O)N2C)OCO4 [Trabectedin] | – | – | – | – | – | – | – | – | – | – | – | 1.03 ± 0.017 | 1.02 ± 0.025 | 0.993 ± 0.018 | 0.991 ± 0.014 | 0.832 ± 0.043 | 0.516 ± 0.024 | 0.0964 ± 0.077 | 0.126 ± 0.016 | 0.0862 ± 0.0056 | 1.05 ± 0.032 | 1.03 ± 0.04 |
| CC(=O)Nc1cccc(-n2c(=O)n(C3CC3)c(=O)c3c(Nc4ccc(I)cc4F)n(C)c(=O)c(C)c32)c1 [Trametinib] | 1.01 ± 0.054 | 1 ± 0.019 | 0.952 ± 0.018 | 0.906 ± 0.029 | 0.845 ± 0.032 | 0.765 ± 0.017 | 0.627 ± 0.011 | 0.38 ± 0.027 | 0.184 ± 0.0096 | 0.144 ± 0.014 | 0.12 ± 0.012 | – | – | – | – | – | – | – | – | – | – | – |
| Cc1cc(Nc2ncnc3ccc(NC4=NC(C)(C)CO4)cc23)ccc1Oc1ccn2ncnc2c1 [Tucatinib] | 1.03 ± 0.042 | 1.04 ± 0.039 | 1.02 ± 0.04 | 1.02 ± 0.037 | 1.01 ± 0.037 | 0.985 ± 0.036 | 1.02 ± 0.026 | 1.01 ± 0.026 | 1.01 ± 0.035 | 0.984 ± 0.025 | 0.985 ± 0.031 | – | – | – | – | – | – | – | – | – | – | – |
